Source: patent publication US8003799B2, “Picolinic acid derivatives and their use as fungicides” (Bayer SAS, priority 2000, dated 2011)

What was measured:
[1] = test system: Erisyphe graminis f. sp. tritici; test: In vivo test on Erisyphe graminis f. sp. tritici (powdery mildew of wheat); settings: dose of 500 g/ha; wheat plants (Audace variety) sprayed 24 hours before contamination; grading 7 to 14 days after contamination vs control plants
Procedure: In Vivo Test on […] Graminis f. Sp. Tritici (Powdery Mildew of Wheat) […] Wheat plants (Audace variety) in starter cups, sown on 50/50 peat soil-pozzulana substrate and grown at 12° C., are treated at the 1-leaf stage (10 cm tall) by spraying with the aqueous suspension described above. Plants, used as controls, are treated with an aqueous solution not containing the active material. After 24 hours, the plants are contaminated by dusting them with […] graminis f. sp. tritici spores, the dusting being carried out using diseased plants. Grading is carried out 7 to 14 days after the contamination, in comparison with the control plants.

Septoria tritici = test: In vivo test on Septoria tritici (septoria disease of wheat); settings: dose of 500 g/ha; wheat plants (Scipion variety) sprayed 24 hours before contamination; grading 15 to 20 days after contamination vs control plants
Procedure: In Vivo Test on Septoria Tritici (Septoria Disease of Wheat) […] Wheat plants (Scipion variety) in starter cups, sown on a 50/50 peat soil-pozzolana substrate and grown at 12° C., are treated at the 1-leaf stage (10 cm tall) by spraying with the aqueous suspension described above. Plants, used as controls, are treated with an aqueous solution not containing the active material. After 24 hours, the plants are contaminated by spraying them with an aqueous suspension of Septoria tritici spores (500,000 spores per mL). The spores are collected from a 15-day-old culture and are suspended in a nutrient solution composed of: • 1.5 g/L of gelatin • 0.5 g/L of sodium oleate • 24 g/L of PDB The contaminated wheat plants are incubated for 72 hours at about 20° C. and at 100% relative humidity, and then for 15 days at 80% relative humidity. Grading is carried out 15 to 20 days after the contamination, in comparison with the control plants.

Nc1ccnc(C(=O)Nc2ccc(Oc3ccc(C(F)(F)F)cc3)cc2)c1O [Compound 108, 4-amino-3-hydroxy-N-para-[4-(trifluoromethyl)phenoxy]phenylpicolinamide]
good (at least 50%) or total protection [1]: at least 50%
good (at least 50%) protection (Septoria tritici): at least 50%
